Values quoted from earlier work as cited in patent publication US9662309B2, “Anti-demodicosis agent” (BAYER INTELLECTUAL PROPERTY GMBH, priority 2004, dated 2017).

Tested on: demodicosis
Settings: spot-on treatment 3 times weekly

22,23-dihydroavermectin B1 [ivermectin]
effectiveness against demodicosis: insufficiently effective
